Measured values as given in paper PMC10094617, “Iron(III) Complexes with Non-Steroidal Anti-Inflammatory Drugs: Structure, Antioxidant and Anticholinergic Activity, and Interaction with Biomolecules” (International Journal of Molecular Sciences, 2023).

Experiments:
[1] = target: T1, bovine serum albumin (BSA) (Bos taurus, UniProt P02769); assay: BSA fluorescence emission quenching (albumin binding); settings: for ΔI/Io (%) quenching of BSA fluorescence: BSA 3 μM, λex 295 nm, λem 343 nm; for K albumin-binding constant (BSA): Scatchard equation; for Kq albumin-quenching constant (BSA): Stern–Volmer, τo = 10^−8 s; for relative BSA fluorescence emission intensity (I/Io, %) remaining: λem,max = 343 nm, up to, % of the initial BSA fluorescence
T1 construct: purchased Sigma-Aldrich Co. (St. Louis, MO, USA)
T1 sequence (P02769 25-607): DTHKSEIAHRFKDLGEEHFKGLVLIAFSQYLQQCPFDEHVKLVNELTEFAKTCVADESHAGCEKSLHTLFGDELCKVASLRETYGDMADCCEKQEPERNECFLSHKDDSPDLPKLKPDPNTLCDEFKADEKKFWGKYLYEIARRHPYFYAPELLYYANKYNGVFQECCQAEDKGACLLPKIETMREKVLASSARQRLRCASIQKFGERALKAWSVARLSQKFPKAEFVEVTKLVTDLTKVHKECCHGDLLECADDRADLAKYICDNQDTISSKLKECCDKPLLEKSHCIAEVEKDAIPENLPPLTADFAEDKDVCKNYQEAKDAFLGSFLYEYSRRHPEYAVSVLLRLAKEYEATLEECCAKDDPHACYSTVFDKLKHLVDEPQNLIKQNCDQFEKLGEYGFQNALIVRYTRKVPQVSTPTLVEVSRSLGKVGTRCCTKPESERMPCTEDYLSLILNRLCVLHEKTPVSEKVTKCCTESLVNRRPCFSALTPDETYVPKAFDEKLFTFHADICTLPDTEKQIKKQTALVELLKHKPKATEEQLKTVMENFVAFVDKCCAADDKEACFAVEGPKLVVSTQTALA
Experimental: (§1) The albumin-binding study for complexes 1–3 was performed via fluorescence emission quenching experiments using BSA (3 μM) or HSA (3 μM), respectively, in a buffer solution (containing 15-mM trisodium citrate and […] at pH 7.0). The quenching of the emission intensity of tryptophan residues of BSA at 343 nm or HSA at 351 nm was monitored using complexes 1–3 as quenchers with increasing concentrations. The fluorescence emission spectra were recorded in the range of 300–500 nm, with an excitation wavelength of 295 nm. The quantitative studies of the serum albumin fluorescence spectra were performed after correction by subtracting the spectra of the compounds.
(§2) The extent of the inner-filter effect can be roughly estimated with the following formula:(2) Icorr=Imeas×10^ε(λexc)cd/2×10^ε(λem)cd/2 where Icorr = corrected intensity, Imeas = the measured intensity, c = the concentration of the quencher, d = the cuvette (1 cm), ε(λexc), and ε(λem) = the ε of the quencher at the excitation and the emission wavelength, respectively, as calculated from the UV-vis spectra of the complexes.
(§3) The Stern–Volmer and Scatchard graphs are used in order to study the interaction of a quencher with serum albumins. The Stern–Volmer quenching equation is used:(3) Io/I=1+Kq×τ0×[Q]=1+KSV×[Q] where Io = the initial tryptophan fluorescence intensity of SA, I = the tryptophan fluorescence intensity of SA after the addition of the quencher, Kq = the quenching constants of SA, KSV = the Stern–Volmer constant, τo = the average lifetime of SA without the quencher, and [Q] = the concentration of the quencher. The value of KSV (M^−1) can be obtained by the slope of the diagram Io/I versus [Q]. Taking τo = 10^−8 s as the fluorescence lifetime of tryptophan in SA, the value of Kq (M^−1s^−1) is calculated from the equation:(4) KSV=Kq×τo and from the Scatchard equation [130]:(5) ΔI/Io/[Q]=n×K−K×ΔI/Io where n is the number of binding sites per albumin and K is the SA-binding constant, K (in M^−1) is calculated from the slope in plots (ΔI/Io)/[Q] versus (ΔI/Io), and n is given by the ratio of y-intercept to the slope.

DPPH radical scavenging = format: biochemical; settings: compound 0.1 mM; for DPPH% (DPPH scavenging ability), 20 min / DPPH% (DPPH scavenging ability), 60 min: ethanol
Experimental: The antioxidant activity of complexes 1–3 was evaluated via their ability to scavenge the free radicals DPPH, hydroxyl, and ABTS. Each experiment was performed in triplicate and the standard deviation of absorbance was less than 10% of the mean.
Ethanol was also used as a control solution. The absorbance at 517 nm was recorded at room temperature, two times, after 20 and 60 min, in order to examine the time-dependence of the DPPH-scavenging activity. The DPPH-scavenging activity of the compounds was expressed as the percentage reduction of the absorbance values of the initial DPPH solution (RA%). The compounds NDGA and BHT were used as reference compounds.

[2] = target: T2, human serum albumin (HSA) (Homo sapiens, UniProt P02768); assay: HSA fluorescence emission quenching (albumin binding); settings: for ΔI/Io (%) quenching of HSA fluorescence: HSA 3 μM, λex 295 nm, λem 351 nm; for K albumin-binding constant (HSA): Scatchard equation; for Kq albumin-quenching constant (HSA): Stern–Volmer, τo = 10^−8 s; for relative HSA fluorescence emission intensity (I/Io, %) remaining: λem,max = 351 nm, up to, % of the initial HSA fluorescence
T2 construct: purchased Sigma-Aldrich Co. (St. Louis, MO, USA)
T2 sequence (P02768 25-609): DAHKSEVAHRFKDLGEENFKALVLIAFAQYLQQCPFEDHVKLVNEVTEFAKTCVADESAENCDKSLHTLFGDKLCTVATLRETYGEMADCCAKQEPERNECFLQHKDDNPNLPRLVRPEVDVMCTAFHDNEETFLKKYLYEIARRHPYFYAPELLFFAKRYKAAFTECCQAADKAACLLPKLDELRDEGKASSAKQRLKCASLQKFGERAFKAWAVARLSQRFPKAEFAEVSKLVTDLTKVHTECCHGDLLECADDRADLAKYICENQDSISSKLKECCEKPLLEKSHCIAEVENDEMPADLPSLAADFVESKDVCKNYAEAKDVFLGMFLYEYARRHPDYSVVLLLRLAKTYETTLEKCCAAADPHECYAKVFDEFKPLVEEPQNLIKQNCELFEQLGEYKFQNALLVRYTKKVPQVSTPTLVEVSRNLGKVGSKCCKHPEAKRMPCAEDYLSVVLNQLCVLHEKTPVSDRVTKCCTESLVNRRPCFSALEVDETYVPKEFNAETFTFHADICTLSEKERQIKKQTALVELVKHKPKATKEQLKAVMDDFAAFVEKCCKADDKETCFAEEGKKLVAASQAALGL
Experimental: as §1, §2, §3

Row | Substance | ΔI/Io (%) quenching of BSA fluorescence [1] | K albumin-binding constant (BSA) [1] | Kq albumin-quenching constant (BSA) [1] | relative BSA fluorescence emission intensity (I/Io, %) remaining [1] | DPPH% (DPPH scavenging ability), 20 min (DPPH radical scavenging) | DPPH% (span over 20-min and 60-min treatments) (DPPH radical scavenging; 20 min and 60 min) | DPPH% (DPPH scavenging ability), 60 min (DPPH radical scavenging) | ΔI/Io (%) quenching of HSA fluorescence [2] | K albumin-binding constant (HSA) [2] | Kq albumin-quenching constant (HSA) [2] | relative HSA fluorescence emission intensity (I/Io, %) remaining [2]
1 | [Fe3O(dicl)6(py)3]Cl∙py [Complex 2] | 92.5% | 6.09 (±0.31) × 10^5 M^−1 | 8.70 (±0.43) × 10^13 M^−1s^−1 | 7.5% | 23.12 ± 0.37% | 22.97–23.12% | 22.97 ± 0.17% | 99.4% | 3.87 (±0.42) × 10^5 M^−1 | 6.09 (±0.30) × 10^13 M^−1s^−1 | 0.6%
2 | [Fe3O(dicl)6(MeOH)3][FeCl4]·Hdicl·1.5MeOH∙H2O [Complex 3] | 97.6% | 5.44 (±0.05) × 10^5 M^−1 | 8.45 (±0.31) × 10^13 M^−1s^−1 | 2.4% | 18.94 ± 0.73% | – | 18.98 ± 0.74% | 96.5% | 2.42 (±0.17) × 10^5 M^−1 | 5.22 (±0.35) × 10^13 M^−1s^−1 | 3.5%
